Measurements published in paper PMC12401824, “Studies on the impact of modifications at the Gln-Trp site in RM2-based GRPR ligands” (EJNMMI Research, 2025).
Read-outs that look alike come from different tables or passages of the source. Starred links: 1 amine or outer side, 2 acyl side, 3 side chain; linkers in the order of their positions; H or OH if unused. Non-standard residues stand in square brackets, D forms with d. Residues, ends and D or L forms follow the SMILES beside them. *: point of attachment. X2 = O=C(O)CN1CCN(CC(=O)O)CCN(CC(=O)NCc2ccc(NC(=O)COCC(=O)*)cc2)CCN(CC(=O)O)CC1; DOTA = O=C(O)CN1CCN(CC(=O)O)CCN(CC(=O)*)CCN(CC(=O)O)CC1; NODAGA = O=C(O)CN1CCN(CC(=O)O)CCN(C(CCC(=O)*)C(=O)O)CC1; NOTA = O=C(O)CN1CCN(CC(=O)O)CCN(CC(=O)*)CC1; Sta = CC(C)C[C@H](N)[C@@H](O)CC(=O)O; Bta = N[C@@H](Cc1csc2ccccc12)C(=O)O; X1 = O=C(CN1CCC(N[*:1])CC1)[*:2]; NHCH(iBu)2 = CC(C)CC(CC(C)C)N*; hSer = N[C@@H](CCO)C(=O)O

Legend:
[1] = target: T1, GRPR (Homo sapiens, UniProt P30550); assay: GRPR affinity (IC50), competitive binding on PC-3 cells vs [3-[^125I]I-D-Tyr^6]MJ9; settings: 2 h, rt
T1 construct: host or cells: PC-3 cells
Method: IC50 values of all compounds were determined according to a previously published procedure. Detailed information on culturing PC-3 cells and on the execution of IC50 studies is provided in the supplementary materials. In brief, competitive binding studies were performed in triplicate on PC-3 cells (1.5 × 10^5 cells in 1 mL/well) after incubation at room temperature for 2 h, using [3-[^125I]I-D-Tyr^6]MJ9 (0.2 nM/well) as radiolabeled reference (n = 3).
After removal of the culture medium, the cells were washed once with 500 µL of HBSS (Hank’s balanced salt solution, Biochrom GmbH, Berlin, Germany, with addition of 1% bovine serum albumin (BSA, v/v)) and left in 200 µL HBSS (1% BSA, v/v) for 9 min at rt for equilibration. Next, 25 µL per well of solutions, containing either HBSS (1% BSA, v/v) as control or the respective compound in increasing concentration (10^-10 M – 10^-4 M in HBSS (1% BSA, v/v)), were added with subsequent addition of 25 µL of [3-[^125I]I-D-Tyr^6]MJ9 (2.0 nm) in HBSS (1% BSA, v/v).
All experiments were performed in triplicate for each concentration. After 2 h incubation at rt, the experiment was terminated by removal of the medium and consecutive rinsing with 300 µL of HBSS (1% BSA, v/v). The media of both steps were combined in one fraction and represent the amount of free radiolabeled reference. Afterwards, the cells were lysed with 300 µL of 1 M NaOH for at least 15 min and united with the 300 µL NaOH of the following washing step. Quantification of bound and free radiolabeled reference was accomplished in a γ-counter. IC50 determination for each conjugate was repeated twice.

[2] = Metabolic stability in vitro in human serum (37 °C, 72 ± 2 h); assay type: in vitro ADME; settings: ^177Lu-labeled NeoB and UL analogs, n = 3
Method: Metabolic stability in vitro was determined applying a procedure published by Linder et al. that was slightly modified. Immediately after labeling, human serum (200 µL) was added to the labeling solution (~ 30 µL) and the mixture was incubated at 37 °C for 72 ± 2 h. Proteins were precipitated by treatment with ice-cold ethanol (150 µL) and ice-cold acetonitrile (450 µL), followed by centrifugation at 13,000 rpm for 5 min. The supernatants were decanted and further analyzed using radio RP-HPLC.

[3] = Cu-complexed, n = 3, read-out: IC50 (nM), Cu-labeled
[4] = Ga-complexed, n = 3, read-out: IC50 (nM), Ga-labeled

T1 sequence (P30550 whole entry): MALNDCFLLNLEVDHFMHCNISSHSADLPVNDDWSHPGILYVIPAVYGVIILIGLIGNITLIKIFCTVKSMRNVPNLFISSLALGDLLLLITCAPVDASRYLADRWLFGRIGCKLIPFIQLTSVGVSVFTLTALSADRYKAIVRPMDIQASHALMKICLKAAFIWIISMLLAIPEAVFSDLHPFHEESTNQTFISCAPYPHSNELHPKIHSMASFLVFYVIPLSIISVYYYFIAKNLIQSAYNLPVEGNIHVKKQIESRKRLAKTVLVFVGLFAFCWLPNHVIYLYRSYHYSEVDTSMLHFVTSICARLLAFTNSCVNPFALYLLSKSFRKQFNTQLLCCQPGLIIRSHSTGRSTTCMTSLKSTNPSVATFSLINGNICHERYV

IC50 [1, 3] [nM]	IC50 [1, 4] [nM]	SMILES	Percentage of intact compound in human serum [2] [%]
11.8 ± 2.1	7.2 ± 0.7	CC(C)C[C@H](NC(=O)C[C@H](O)[C@H](CC(C)C)NC(=O)[C@H](Cc1c[nH]cn1)NC(=O)CNC(=O)[C@@H](NC(=O)[C@H](C)NC(=O)[C@H](Cc1c[nH]c2ccccc12)NC(=O)[C@H](CCO)NC(=O)[C@@H](Cc1ccccc1)NC(=O)CN1CCC(NC(=O)CCC(C(=O)O)N2CCN(CC(=O)O)CCN(CC(=O)O)CC2)CC1)C(C)C)C(N)=O (stereo partly drawn) [NODAGA-[des-DOTA, Hse^7]RM2] ({NODAGA}-[X1][dF][hSer]WAVGH[Sta]L-NH2)	–
2.8 ± 0.2	1.8	CC(C)C[C@H](NC(=O)C[C@H](O)[C@H](CC(C)C)NC(=O)[C@H](Cc1c[nH]cn1)NC(=O)CNC(=O)[C@@H](NC(=O)[C@H](C)NC(=O)[C@H](Cc1csc2ccccc12)NC(=O)[C@H](CCC(N)=O)NC(=O)[C@@H](Cc1ccccc1)NC(=O)CN1CCC(NC(=O)CN2CCN(CC(=O)O)CCN(CC(=O)O)CC2)CC1)C(C)C)C(N)=O [NOTA-[des-DOTA, Bta^8]RM2] ({NOTA}-[X1][dF]Q[Bta]AVGH[Sta]L-NH2)	–
14.2 ± 2.7	8.4 ± 1	CC(C)C[C@H](NC(=O)C[C@H](O)[C@H](CC(C)C)NC(=O)[C@H](Cc1c[nH]cn1)NC(=O)CNC(=O)[C@@H](NC(=O)[C@H](C)NC(=O)[C@H](Cc1c[nH]c2ccccc12)NC(=O)[C@H](CCO)NC(=O)[C@@H](Cc1ccccc1)NC(=O)CN1CCC(NC(=O)CN2CCN(CC(=O)O)CCN(CC(=O)O)CC2)CC1)C(C)C)C(N)=O [NOTA-[des-DOTA, Hse^7]RM2] ({NOTA}-[X1][dF][hSer]WAVGH[Sta]L-NH2)	–
33 ± 2.7	7.7 ± 0.7	CC(C)C[C@H](NC(=O)C[C@H](O)[C@H](CC(C)C)NC(=O)[C@H](Cc1c[nH]cn1)NC(=O)CNC(=O)[C@@H](NC(=O)[C@H](C)NC(=O)[C@H](Cc1c[nH]c2ccccc12)NC(=O)[C@H](CCO)NC(=O)[C@@H](Cc1ccccc1)NC(=O)CN1CCC(NC(=O)CN2CCN(CC(=O)O)CCN(CC(=O)O)CCN(CC(=O)O)CC2)CC1)C(C)C)C(N)=O [[Hse^7]RM2] ({DOTA}-[X1][dF][hSer]WAVGH[Sta]L-NH2)	–

Further lines, the molecule ahead of its results:

SMILES	IC50 [1, 3] [nM]	IC50 [1, 4] [nM]	Percentage of intact compound in human serum [2] [%]
CC(C)CC(CC(C)C)NC(=O)[C@H](Cc1cnc[nH]1)NC(=O)CNC(=O)[C@@H](NC(=O)[C@H](C)NC(=O)[C@H](Cc1c[nH]c2ccccc12)NC(=O)[C@H](CCC(N)=O)NC(=O)[C@@H](Cc1ccccc1)NC(=O)COCC(=O)Nc1ccc(CNC(=O)CN2CCN(CC(=O)O)CCN(CC(=O)O)CCN(CC(=O)O)CC2)cc1)C(C)C [NeoB, reference compound]	–	–	60.8 ± 1.2
CC(C)CC(CC(C)C)NC(=O)[C@H](Cc1c[nH]cn1)NC(=O)CNC(=O)[C@@H](NC(=O)[C@H](C)NC(=O)[C@H](Cc1csc2ccccc12)NC(=O)[C@H](CCC(N)=O)NC(=O)[C@@H](Cc1ccccc1)NC(=O)COCC(=O)Nc1ccc(CNC(=O)CN2CCN(CC(=O)O)CCN(CC(=O)O)CCN(CC(=O)O)CC2)cc1)C(C)C [[Bta^8]NeoB] (X2-[dF]Q[Bta]AVGH-{NHCH(iBu)2}; N-terminus and C-terminus assumed)	–	–	36.2 ± 2.6
CC(C)C[C@H](NC(=O)C[C@H](O)[C@H](CC(C)C)NC(=O)[C@H](Cc1c[nH]cn1)NC(=O)CNC(=O)[C@@H](NC(=O)[C@H](C)NC(=O)[C@H](Cc1csc2ccccc12)NC(=O)[C@H](CCC(N)=O)NC(=O)[C@@H](Cc1ccccc1)NC(=O)CN1CCC(NC(=O)CN2CCN(CC(=O)O)CCN(CC(=O)O)CCN(CC(=O)O)CC2)CC1)C(C)C)C(N)=O [[Bta^8]RM2] ({DOTA}-[X1][dF]Q[Bta]AVGH[Sta]L-NH2)	4.2 ± 0.6	2.3 ± 0.1	–
CC(C)CC(CC(C)C)NC(=O)[C@H](Cc1c[nH]cn1)NC(=O)CNC(=O)[C@@H](NC(=O)[C@H](C)NC(=O)[C@H](Cc1c[nH]c2ccccc12)NC(=O)[C@H](CCO)NC(=O)[C@@H](Cc1ccccc1)NC(=O)COCC(=O)Nc1ccc(CNC(=O)CN2CCN(CC(=O)O)CCN(CC(=O)O)CCN(CC(=O)O)CC2)cc1)C(C)C [[Hse^7]NeoB] (X2-[dF][hSer]WAVGH-{NHCH(iBu)2}; N-terminus and C-terminus assumed)	–	–	57.4 ± 2.1
CC(C)CC(CC(C)C)NC(=O)[C@H](Cc1c[nH]cn1)NC(=O)CNC(=O)[C@@H](NC(=O)[C@H](C)NC(=O)[C@](C)(Cc1c[nH]c2ccccc12)NC(=O)[C@H](CCC(N)=O)NC(=O)[C@@H](Cc1ccccc1)NC(=O)COCC(=O)Nc1ccc(CNC(=O)CN2CCN(CC(=O)O)CCN(CC(=O)O)CCN(CC(=O)O)CC2)cc1)C(C)C [[α-Me-Trp^8]NeoB]	–	–	70.7 ± 2.8
